Reference: PMC11061835, “Elucidating the Mechanism of Metabolism of Cannabichromene by Human Cytochrome P450s” (Journal of Natural Products, 2024)
Where “and” joins values, the source holds several entries; their conditions need not be identical. Equal entries are not always repeated.

Legend:
CYP2J2 [1] = biological target: T1, CYP2J2 (Homo sapiens, UniProt P51589); assay: CBC metabolism by CYP2J2; assay type: in vitro ADME
T1 construct: His-tag; made in house; host or cells: E. coli DH-5α with pTGro7 plasmid
T1 sequence (P51589 1-502): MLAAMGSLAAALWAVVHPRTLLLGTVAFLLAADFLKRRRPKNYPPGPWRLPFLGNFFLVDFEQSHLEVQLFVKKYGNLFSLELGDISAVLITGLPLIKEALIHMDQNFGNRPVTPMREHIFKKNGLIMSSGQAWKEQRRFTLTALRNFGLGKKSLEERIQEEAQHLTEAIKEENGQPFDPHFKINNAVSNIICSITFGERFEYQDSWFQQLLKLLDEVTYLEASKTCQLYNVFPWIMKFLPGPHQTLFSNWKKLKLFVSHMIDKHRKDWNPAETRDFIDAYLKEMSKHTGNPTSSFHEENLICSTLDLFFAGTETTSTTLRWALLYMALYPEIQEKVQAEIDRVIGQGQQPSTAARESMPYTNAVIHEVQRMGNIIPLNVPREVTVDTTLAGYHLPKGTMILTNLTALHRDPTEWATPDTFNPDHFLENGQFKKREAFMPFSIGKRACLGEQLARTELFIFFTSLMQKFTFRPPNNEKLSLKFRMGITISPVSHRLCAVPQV
Protocol: To study the kinetics of CBC metabolism, concentration dependent metabolism of CBC was carried out in the presence of various CYPs using the following procedure. CYP2J2, CYP2C8, CYP2D6, CYP2C9, and CYP3A4 (final concentration 0.5 μM) were initially dissolved in lipid containing POPC:POPS (8:2 v/v) followed by addition of CPR (final concentration 0.6 μM) in 0.1 M potassium phosphate buffer (pH 7.4). CBC (5–80 μM) was added and incubated at 37 °C for 10 min. The reaction was triggered by NADPH and extracted using the exact sample protocol as mentioned in the HLM section.
Samples were analyzed with the 5500 QTRAP LC/MS/MS system (Sciex, Framingham, MA) in the Metabolomics Lab of Roy J. Carver Biotechnology Center, University of Illinois at Urbana–Champaign. Software Analyst 1.7.1 was used for data acquisition and analysis. The 1200 series HPLC system (Agilent Technologies, Santa Clara, CA) includes a degasser, an autosampler, and a binary pump. […] Multiple reaction monitoring (MRM) was used for quantitation: CBC m/z 315.1 → m/z 135.0; 1-acetoxy-6′,7′-dihydroxy-CBC (JM-I-73) m/z 349.1→ m/z 193.0; 1″-hydroxy-CBC (JM-I-66) m/z 331.1→ m/z 275.1; 6′,7′-epoxy-CBC (JM-I-27) m/z 331.1→ m/z 193.0; 7′,10′-ene-6′-hydroxy-CBC (JM-I-30) m/z 331.1→ m/z 193.0; 8′-hydroxy-CBC (JM-I-32) […]→ m/z 77.0. Internal standard EET-EA-d11 was monitored at m/z 375.2→ m/z 357.1.

CYP2J2 [2] = biological target: T1, CYP2J2; assay: Spectroscopic titration (Soret shift), CYP2J2; assay type: binding; conditions: CYP2J2, absence of CPR
Protocol: CBC binding to various CYPs was determined by analyzing the Soret shift from ∼417 to ∼390 nm. CBC (stock 10 mM) was dissolved in ethanol and titrated with different CYPs at room temperature. Buffer-exchanged CYP2J2, CYP2D6, CYP3A4, and CYP2C8 (concentrations of proteins were kept between 4 and 5 μM) were dissolved in 0.1 M phosphate buffer (pH = 7.4), and initial spectra were recorded from 200 to 800 nm with a prominent peak at 417 nm. The concentration of CBC was varied from 0 to 100 μM keeping the final concentration of substrate in EtOH not more than 1% in cuvette. 0–4 μL of stock CBC was added using a Hamilton syringe in both the sample and blank cuvettes. The mixture was incubated for 5 min at 37 °C, and absorbance spectra were recorded using a Cary Bio 300 UV–vis spectrophotometer (Agilent Technologies, Santa Clara, CA). To eliminate the background absorbance, we derived the final spectra by […].

[3] = biological target: T2, CYP2D6 in the presence of CPR (Homo sapiens, UniProt P10635); assay: Spectroscopic titration, CYP2D6–CPR complex; assay type: binding
T2 construct: His-tag; made in house; host or cells: E. coli DH-5α with pTGro7 plasmid (CYP)
T2 sequence (P10635 whole entry): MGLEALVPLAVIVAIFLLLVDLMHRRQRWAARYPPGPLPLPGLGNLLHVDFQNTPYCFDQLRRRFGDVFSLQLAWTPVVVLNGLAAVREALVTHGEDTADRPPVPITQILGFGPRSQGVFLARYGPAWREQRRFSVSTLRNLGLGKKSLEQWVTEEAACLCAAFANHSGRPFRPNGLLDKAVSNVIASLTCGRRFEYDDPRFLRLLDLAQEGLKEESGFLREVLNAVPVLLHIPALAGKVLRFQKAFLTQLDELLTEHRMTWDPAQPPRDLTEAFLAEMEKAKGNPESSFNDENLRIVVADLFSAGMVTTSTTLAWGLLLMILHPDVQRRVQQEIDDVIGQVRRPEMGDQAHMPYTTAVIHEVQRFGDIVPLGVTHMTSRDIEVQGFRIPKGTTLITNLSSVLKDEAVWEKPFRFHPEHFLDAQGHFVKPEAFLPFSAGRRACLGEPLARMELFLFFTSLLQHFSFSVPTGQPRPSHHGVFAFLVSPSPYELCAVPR
T2 sequence (P16435 whole entry partner): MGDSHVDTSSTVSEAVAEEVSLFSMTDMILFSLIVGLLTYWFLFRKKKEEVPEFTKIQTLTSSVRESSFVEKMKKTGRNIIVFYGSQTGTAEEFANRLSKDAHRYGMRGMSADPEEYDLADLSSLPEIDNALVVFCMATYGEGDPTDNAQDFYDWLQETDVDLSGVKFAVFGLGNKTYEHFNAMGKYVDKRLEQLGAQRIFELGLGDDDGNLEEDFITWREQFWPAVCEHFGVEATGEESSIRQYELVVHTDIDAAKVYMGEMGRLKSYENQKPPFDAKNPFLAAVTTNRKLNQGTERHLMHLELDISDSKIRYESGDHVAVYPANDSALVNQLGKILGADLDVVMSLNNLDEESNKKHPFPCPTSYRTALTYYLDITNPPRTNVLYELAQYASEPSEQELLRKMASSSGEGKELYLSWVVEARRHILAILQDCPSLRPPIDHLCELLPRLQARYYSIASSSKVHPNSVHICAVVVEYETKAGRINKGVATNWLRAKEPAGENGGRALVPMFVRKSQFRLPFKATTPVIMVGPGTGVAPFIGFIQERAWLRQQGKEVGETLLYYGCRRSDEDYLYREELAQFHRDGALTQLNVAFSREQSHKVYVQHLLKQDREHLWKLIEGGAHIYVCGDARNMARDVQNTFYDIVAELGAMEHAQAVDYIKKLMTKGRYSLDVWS
Protocol: For CBC titration to CYP–CPR complex, initially CYPs were dissolved in 400 μL of 0.1 M phosphate buffer (pH = 7.4) keeping the concentration between […]. Following this 50 μL of CPR (50 μM stock) was added to both cuvettes, and the final concentration of both of the proteins was 5–6 μM. Both proteins were initially mixed and incubated for 5 min followed by titration with CBC in the same process as mentioned above. The substrate-bound spectra were then subtracted from substrate-free spectra, and the extent of binding was analyzed using Origin Pro 2020.

CYP3A4 with CPR = biological target: T3, CYP3A4 with CPR (Homo sapiens, UniProt P08684); assay: NADPH activity assay, CYP3A4 with CPR; assay type: biochemical; conditions: CYP3A4, CBC 50 μM vs substrate-free
T3 construct: His-tag; made in house; host or cells: E. coli DH-5α with pTGro7 plasmid (CYP)
T3 sequence (P08684 whole entry): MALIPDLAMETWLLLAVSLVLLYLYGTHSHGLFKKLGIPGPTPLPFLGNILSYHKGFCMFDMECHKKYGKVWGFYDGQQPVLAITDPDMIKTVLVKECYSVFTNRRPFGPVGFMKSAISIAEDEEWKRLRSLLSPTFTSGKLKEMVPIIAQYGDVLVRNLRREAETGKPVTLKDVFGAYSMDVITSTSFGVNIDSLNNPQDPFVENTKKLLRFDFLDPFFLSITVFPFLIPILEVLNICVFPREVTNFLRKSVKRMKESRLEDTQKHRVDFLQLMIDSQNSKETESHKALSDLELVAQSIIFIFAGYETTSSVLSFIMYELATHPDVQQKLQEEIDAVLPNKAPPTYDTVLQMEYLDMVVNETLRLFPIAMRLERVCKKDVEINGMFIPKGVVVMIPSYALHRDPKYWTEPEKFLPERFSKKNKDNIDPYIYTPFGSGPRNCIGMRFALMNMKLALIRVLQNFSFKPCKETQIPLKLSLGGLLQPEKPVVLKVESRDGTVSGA
T3 sequence (P16435 whole entry partner): as the sequence (P16435 whole entry partner) above
Protocol: CYP-mediated NADPH oxidation was measured using kinetics mode in a Cary 300 UV–vis spectrometer (Agilent Technologies). 0.2 μM (final concentration) of CYP was taken in 0.1 M potassium phosphate buffer (pH 7.4) and incubated with 0.6 μM (final concentration) of CPR for 5 min with a reaction volume of 400 μL. The reaction was initiated with 200 μM of NADPH, and the absorption change was monitored over 10 min at 340 nm. The rate of NADPH consumption (or NADPH to NADP^+ conversion) was calculated by taking the molar extinction coefficient as 6.22 mM^–1 cm^–1 at 340 nm. To estimate the change in NADPH oxidation in the presence of CBC, both CYP and CPR were further incubated using CBC (final concentration 50 μM) for 5 min followed by measuring the change in absorbance at 340 nm as discussed earlier.

TRPV2 = system: TRPV2; parameters: method as in PMID 30697147; conditions: read-out: agonism toward TRPV2; cited from earlier work

Compound | ratio of 8′-hydroxy-CBC to 6′,7′-epoxy-CBC formed (CYP2J2 [1]; CYP2J2, from Vmax) | production of 8′-hydroxy-CBC with CYP2J2 relative to CYP2C8 (CYP2J2 [1]; CYP2J2 vs CYP2C8) | ΔAmax (spin state change due to heme perturbation) (CYP2J2 [2]) | Kd (CYP2J2 [2]; read-out: Kd(app)) | ΔAmax (spin state change due to heme perturbation) [3] | Kd ([3]; read-out: Kd(app)) | percentage increase of NADPH consumption in the presence of CBC (CYP3A4 with CPR) | EC50 (TRPV2)
CCCCCc1cc(O)c2c(c1)OC(C)(CC/C=C(\C)CO)C=C2 (centres unmarked) [8′-hydroxy-CBC] | approximately 50 | ~10 times |  |  |  |  |  | 
CCCCCc1cc(O)c2c(c1)OC(C)(CCC=C(C)C)C=C2 (centres unmarked) [CBC, Cannabichromene] |  |  | 0.04 ± 0.00 and ~0.04 | 3.06 µM and ~3 µM | 0.04 ± 0.00 and 0.03–0.04 | 3.12 µM and < 10 µM and ~3 µM | ~15% | < 10 µM
